Measured values taken from patent publication US11779664B2, “Targeted contrast agents for MRI of alpha-synuclein deposition” (Texas Children's Hospital, priority 2020, dated 2023).
“Also recorded” adds a separate entry of the source.

Columns and labels:
[1] = biological target: T1, α-syn fibrils (Homo sapiens, UniProt P37840); experiment: α-Syn fibril/ligand binding assay (fluorescence saturation binding); conditions: for selectivity for α-syn versus Aβ fibrils (comparison of Kd values): Kd Aβ fibrils vs Kd α-syn fibrils; for Kd: synthetic α-syn fibrils 2.5 μM, PBS, 37° C., 1 h
T1 construct: purchased R-peptide S-1001-2
Description: To this suspension was added 0.2 mL phosphate buffer (10 mM, pH 7.5). The soluble materials were removed by spinning for 5 min in a centrifuge (18000 g/s). The process was repeated four times. After the fourth time, the peptide was transferred into a microtube (200 μl), and 2.5 μl of 300 mM MnCl (made in water) was added. […] The fibrils formed were spun down at 21,000 g/s for 6 min. The supernatant was discarded, and the fibril pellet was resuspended in 200 μl PBS buffer (pH=7.4).
The mixture was incubated at 37° C. for 1 h with shaking. The mixture was spun down at 21,000 g/s for 15 min to separate the fibrils. The precipitate was washed twice with Tris-HCl and resuspended in 200 μL buffer. […] All data points were performed in triplicate. The Kd and the maximal number of binding sites (Bmax) values were determined by fitting the data to the equation Y=Bmax×X/(X+Kd) by nonlinear regression using MATLAB software (R2019B).

[2] = tested on: β-amyloid plaques in human AD brain tissue; experiment: Fluorescent staining of post-mortem human AD brain tissue sections; conditions: cortical sections, co-stained with 4G8 antibody
Source text: To assess the observed selectivity in α-syn versus Aβ fibril binding on aggregates in human tissue, equimolar concentrations of ligands 8, 32, and 37 were further evaluated on PD tissue as described above, alongside cortical sections from neuropathologically verified post-mortem brain samples of AD patients. […] A similar labeling pattern and efficiency are observed in the antibody channel (column III). […] The antibody, anti-β-Amyloid, 17-24 Antibody (4G8), highlights both dense core and diffuse Aβ pathology (column III).
Midbrain tissue (Frontal cortex 5590) was embedded with Tissue-Tek O.C.T. Compound and kept in liquid nitrogen for 30 mins. The embedded tissue was sliced into 30 μm thick sections with Lecia Biosystems Cryostats under −20° C. and mounted onto Precleaned Microscope Slides. The section was washed with 1× PBST two times and then loaded into 10% formalin solution for 20 mins. The section was washed with 1× PBS three times and permeabilized with 0.1% Triton-X 100 for 10 min. The section was washed with 1× PBS two times and incubated with 2% normal Donkey serum at room temperature for 1 h. […] The tissue was imaged with Lecia DMi8 Motorized Fluorescence Microscope using standard excitation/emission filters for Alexa Fluor 488 or Alexa Fluor 647.

[3] = biological target: T2, α-syn pathology (Lewy pathology) in human PD brain tissue (Homo sapiens, UniProt P37840); experiment: Fluorescent staining of post-mortem human PD brain tissue sections; conditions: frontal cortex sections, co-stained with Syn211 or Syn303, confocal microscopy
T2 construct: tissue NIH Neurobiobank; host or cells: post-mortem human PD brain sections (frontal cortex, pons)
Description: Sections from the pons and frontal-cortex of the PD brain were permeabilized and treated sequentially with antibody [Anti-alpha-Synuclein (aa 121-125) Antibody, clone Syn 211] and 1 μM solution of each compound and visualized by confocal microscopy. […] Column II depicts ligand fluorescence. Column III depicts fluorescence from the antibody. Column IV is a composite image created by merging the first three images. […] The pattern and labeling intensity appear similar in the antibody channel. […] In up close Z-stacked images of the treated tissue (Row C), the pathology appears to surround dark holes (arrows) in the ligand and antibody channels.
To further characterize the sites labeled by the ligands and antibody Syn211 tissue staining experiments, contiguous cortical sections were treated with compound 8 and then either Syn211 or Syn303. As expected, the sections treated with compound 8 and Syn211 (FIG. 17, first row) show identical ligand and antibody labeling patterns that colocalize in the composite image. Both the ligand and antibody appear to label all forms of pathology present on the tissue. […]
Midbrain tissue (Frontal cortex 5469) was embedded with Tissue-Tek O.C.T. Compound and kept in liquid nitrogen for 30 min. […] The tissue was imaged with Lecia DMi8 Motorized Fluorescence Microscope using standard excitation/emission filters for Alexa Fluor 488 or Alexa Fluor 647.

selectivity for α-syn versus Aβ fibrils (comparison of Kd values) [1] [fold]	Kd [1] [µM]	SMILES	labeling of Aβ pathology in AD brain sections [2]	labeling of Lewy pathology in PD brain sections [3]
14.4	0.0097	COc1cc(/C=C/C=C2\Cc3ccccc3C2=O)ccc1O [compound 8, (E)-2-((E)-3-(4-Hydroxy-3-methoxyphenyl)allylidene)-2,3-dihydro-1H-inden-1-one]	mostly dense core Aβ plaques	avidly labels Lewy pathology; also recorded: labels all conformations of the pathology; also recorded: avid labeling of both large and fine deposits of the pathology
26	0.0188	O=C(O)c1ccc(-c2ccc(/C=C/C=C3\Cc4ccc(O)cc4C3=O)cc2)cc1 [compound 32, 4′-((E)-3-((E)-6-Hydroxy-1-oxo-1,3-dihydro-2H-inden-2-ylidene)prop-1-en-1-yl)-[1,1′-biphenyl]-4-carboxylic acid]		avid labeling of Lewy pathology
